Measurements as given in patent publication US6999905B2, “Method for extracting significant signal, recording medium and program” (priority 2002, dated 2006).

Columns and labels:
Type in all cases: cell-based
[1] = tested on: neuron prepared from Lymnaea stagnails
[2] = tested on: neuron prepared from Lymnaea stagnails; test: Electrical signal of a neuron under glutamate, average of standard deviations (Example 1); settings: 0, 0.1, 0.3, 1, 3, 10, 30, or 100 μM glutamate; standard deviation of 100 milliseconds; FIG. 6
Source text: FIG. 2 is a schematic diagram showing a configuration of an apparatus and steps used in a signal extracting method according to Example 1 of the present invention. The apparatus comprises a measurement section 101 for continuously measuring action potential generated from a neuron; a computer 100 incorporating a hard disk storing a program for executing a standard deviation calculation step 102 for calculating a standard deviation of measured data every predetermined time, an average calculation step 105 for calculating an average of standard deviation values output every predetermined time, and an activity calculation step 108 for calculating an ion channel activity from an average output from the average calculation step 105; and a data displaying section 110, such as CRT, for displaying the ion channel activity.
The apparatus was used to measure an electrical signal of a neuron which was actually prepared from Lymnaea stagnails where 0, 0.1, 0.3, 1, 3, 10, 30, or 100 μM glutamate was applied to the neuron. The resultant measured data spanning […] was divided into pieces of subdata spanning 100 milliseconds, for each of which a standard deviation was in turn calculated. The average of the standard deviations was plotted in FIG. 6. […]

[3] = tested on: neuron prepared from Lymnaea stagnails; test: Conventional intracellular recording of a neuron before and after glutamate, same signal processing (Example 2, FIG. 8); settings: after application of glutamate, before application 0.181
Source text: The curve to the left in FIG. 8 is a histogram of standard deviation values every 5 milliseconds before application of glutamate. The curve to the right in FIG. 8 is a histogram of standard deviation values every 5 milliseconds after the application of glutamate. As indicated in these figures, the averages and half-widths of graphs obtained by approximating the histograms, before and after the application of glutamate, to normal distributions are 0.181 and 0.041, respectively, before the application and 0.534 and 0.204, respectively, after the application. Comparing between the results of FIGS. 7 and 8, the result of the extracellular recording method is similar to that of the intracellular recording method.

[4] = tested on: neuron prepared from Lymnaea stagnails; test: Extracellular recording of a neuron before and after glutamate, normal distribution of standard deviations (Example 2); settings: after application of 50 μM glutamate, before application 0.488
Source text: FIG. 3 is a schematic diagram showing a configuration of an apparatus and steps used in a signal extracting method according to Example 2 of the present invention. The apparatus comprises a measurement section 101 for continuously measuring action potential generated from a neuron; a computer 100 incorporating a hard disk storing a program for executing a standard deviation calculation step 102 for calculating a standard deviation of measured data every predetermined time, a normal distribution approximation step 103 for dividing a standard deviation group consisting of a plurality of resultant standard deviations into a plurality of classes having a predetermined width of standard deviation as a unit, and plotting each standard deviation on a coordinate system in which X axis represents the class and Y axis represents the number of the standard deviations existing in each class, an average and half-width calculation step 106 for approximating the resultant graph to a normal distribution, and calculating the average and half-width of the resultant normal distribution, and an activity categorization step 109 for categorizing an ion channel activity based on the resultant average and half-width; and a data displaying section 110, such as CRT, for displaying the ion channel activity. […]

[5] = tested on: Smooth muscle cells derived from rat aorta vessels; test: Potential changes of smooth muscle cells on a semiconductor substrate stimulated with norepinephrine (Example 7); settings: 10 μM norepinephrine; potential changes measured for 60 seconds; FIG. 15
Method: Smooth muscle cells derived from rat aorta vessels were cultured on a specially treated semiconductor substrate.
The semiconductor substrate has 100 through holes, each of which has a diameter of 5 μm with the pitch of the through holes being 30 μm, in an area of 1 mm^2. A surface of the semiconductor substrate was coated with 0.01% (w/v) collagen type I solution (Sigma C8919) at a density of 10 μg/cm^2, which was in turn allowed to react at 37° C. for 30 minutes, followed by air drying. Smooth muscle cells derived from rat aorta vessels were cultured on the substrate cleansed with sterilized water. After three days of the culture, the following experiment was conducted.
When measuring ion channel activity, the vessel smooth muscle cells were suctioned by applying a predetermined pressure from the rear side of the semiconductor substrate so that the cells were made to contact the semiconductor substrate. […] In an experimental system, the smooth muscle cells were stimulated with 10 μM norepinephrine, and potential changes were measured for 60 seconds. […] Note that the collection of time-series data was started 10 milliseconds after the start of the experiment, so that measured data was not extracted for the time lag. Thereafter, standard deviations were calculated every 100 milliseconds from the time-series data, thereby clearly extracting ion channel activities due to the stimulant. […]

With NC1=N[C@H](O)[C@H]2[C@H]3O[C@]4(O)O[C@@H]([C@@H](O)[C@@]2(N1)[C@@H]4O)[C@]3(O)CO [TTX, tetrodotoxin] the “average of the distribution of standard deviation values every 5 milliseconds” value [1] was “shifted along the horizontal axis toward the left further than the control”.

For N[C@@H](CCC(=O)O)C(=O)O [glutamate], the “average of the standard deviations (ion channel activity)” value [2] was “dependent on glutamate concentration”, the “average of normal distribution of standard deviation values every 5 milliseconds” value [3] was 0.534 and the “average of normal distribution of standard deviation values every 5 milliseconds” value [4] was 0.733. The “average of the distribution of standard deviation values every 5 milliseconds” value [1] was “shifted toward the right along the horizontal axis”.

In the case of NC[C@H](O)c1ccc(O)c(O)c1 [norepinephrine], the “average of the normal distribution of standard deviations every 100 milliseconds (ion channel activities)” value [5] is reported as “clearly shifted toward higher class values than when no drug was applied”.
